In patent publication US7811352B2, “Fertilizer compositions and methods of using” (priority 2005, dated 2010):

Tests used:
Type in all cases: in vivo
[1] = test system: Moonlight Kentucky bluegrass; assay: Blade density rating, Kentucky bluegrass lawn (Example 17); settings: Day 70
From the text: (§1) In this Example, the effect of a fertilizer comprising lysine on cool season lawn variety turfgrass growth was examined. The effects of lysine (HCl) and LIQUID LYSINE on a common variety of law turfgrass (Moonlight Kentucky bluegrass) were compared with those of urea, Milorganite and a blended fertilizer (a blend of methylene urea and urea in an approximately 1:1 ratio).
Fifteen fertilizer treatments comprising three concentrations of each fertilizer composition (Milorganite N—P—K, 6-2-0), urea (N—P—K, 46-0-0), a blended fertilizer, LIQUID LYSINE (N—P—K, 10-2-1), and lysine (HCl) (N—P—K, 15-2-1)) were prepared and applied to 3 replications of newly established “Moonlight” variety Kentucky bluegrass lawn turfgrass. The urea, lysine (HCl), and LIQUID LYSINE were dissolved/suspended in 1.5 gal water prior to application. […], 1.0 lb N/1000 ft^2/year and 3.0 lb N/1000 ft^2/year, The urea, LIQUID LYSINE and lysine (HCl) were applied as foliar liquids, while Milorganite and the blended fertilizer were applied as granular fertilizers. Plot size was 4 ft×8 ft laid out in a replicated complete block design. Plots were mowed at 2.0 inches before fertilizer application and mowed two times per week to 2.0 inch height. Grass clippings were not removed from the plots and no supplemental cultural maintenance or pest management was applied. Irrigation (0.15 inch) was applied following application and thereafter only when necessary to insure survival of the turf. Plots were rated for turfgrass quality (scale of 1-9 where 9=dark green turf, 1=dead/brown turf, and 6=minimally acceptable turf) and phytotoxic injury (scale of 0-9 where 9=significant foliar injury and 2=minimally objectionable foliar injury) throughout the study period. Quality was measured prior to application (day 0) and day 37, day 70 and day 95 after application. Injury was measured on day 37 and day 70 after application. In addition, blade density of the grass was measured on day 70 after application (scale of 1-9, where 9=very dense turf, 1=low density turf). All data was subject to statistical analysis and significant means were determined.

[2] = test system: Moonlight Kentucky bluegrass; assay: Phytotoxic injury rating, Kentucky bluegrass lawn (Example 17)
From the text: as §1
(§2) Fifteen fertilizer treatments comprising three concentrations of each fertilizer composition (Milorganite N—P—K, 6-2-0), urea (N—P—K, 46-0-0), a blended fertilizer, LIQUID LYSINE (N—P—K, 10-2-1), and lysine (HCl) (N—P—K, 15-2-1)) were prepared and applied to 3 replications of newly established “Moonlight” variety Kentucky bluegrass lawn turfgrass. The urea, lysine (HCl), and LIQUID LYSINE were dissolved/suspended in 1.5 gal water prior to application. […], […], The urea, LIQUID LYSINE and lysine (HCl) were applied as foliar liquids, while Milorganite and the blended fertilizer were applied as granular fertilizers. Plot size was 4 ft×8 ft laid out in a replicated complete block design. Plots were mowed at 2.0 inches before fertilizer application and mowed two times per week to 2.0 inch height. Grass clippings were not removed from the plots and no supplemental cultural maintenance or pest management was applied. Irrigation (0.15 inch) was applied following application and thereafter only when necessary to insure survival of the turf. Plots were rated for turfgrass quality (scale of 1-9 where 9=dark green turf, 1=dead/brown turf, and 6=minimally acceptable turf) and phytotoxic injury (scale of 0-9 where 9=significant foliar injury and 2=minimally objectionable foliar injury) throughout the study period. Quality was measured prior to application (day 0) and day 37, day 70 and day 95 after application. Injury was measured on day 37 and day 70 after application. In addition, blade density of the grass was measured on day 70 after application (scale of 1-9, where 9=very dense turf, 1=low density turf). All data was subject to statistical analysis and significant means were determined.

[3] = test system: Moonlight Kentucky bluegrass; assay: Turfgrass quality rating, Kentucky bluegrass lawn (Example 17)
From the text: as §1, §2

[4] = test system: Pennlinks creeping bentgrass maintained as a golf fairway; assay: Turfgrass quality rating, fairway creeping bentgrass (Example 15); settings: scale of 1-9
From the text: as §1, with “fairway” for “lawn variety”, “common type of golf course fairway” for “common”, “variety” for “variety of law”, “(Pennlinks creeping bentgrass maintained as a golf fairway)” for “(Moonlight Kentucky bluegrass)”
Fifteen fertilizer treatments comprising three concentrations of each fertilizer composition (Milorganite (N—P—K, 6-2-0), urea (N—P—K, 46-0-0), a blended fertilizer, LIQUID LYSINE (N—P—K, 10-2-1), and lysine (HCl) (N—P—K, 15-2-1)) were prepared and applied to 3 replications of a well established Pennlinks creeping bentgrass maintained as a golf fairway grass. The urea, lysine (HCl), and LIQUID LYSINE were dissolved/suspended in 1.5 gal water prior to application. […] The urea, LIQUID LYSINE and lysine (HCl) were applied as foliar liquids, while Milorganite and the blended fertilizer were applied as granular fertilizers. Plot size was 4 ft×8 ft laid out in a replicated complete block design. Plots were mowed at 0.5 inches before fertilizer application and mowed three times per week to 0.5 inch height. Grass clippings were not removed from the plots and no supplemental cultural maintenance was applied. Irrigation (0.15 inch) was applied following application and every other day thereafter. Plots were rated for turfgrass quality (scale of 1-9 where 9=dark green turf, 1=dead/brown turf, and 6=minimally acceptable turf and phytotoxic injury (scale of 0-9 where 9=significant foliar injury and 2=minimally objectional foliar injury) throughout the study period. Quality was measured prior to application (day 0) and day 37, day 70 and day 95 after application. Injury was measured on day 37, day 70 and day 95 after application. All data was subject to statistical analysis and significant means were determined. Average turfgrass quality ratings for the treatments are presented in Table 24.

[5] = Weekly Rate 0.5 lbs N/1000 ft^2
[6] = Weekly Rate 1.0 lbs N/1000 ft^2
[7] = Weekly Rate 3.0 lbs N/1000 ft^2
[8] = Weekly Rate 0.5 lbs N/1000 ft^2, Day 37
[9] = Weekly Rate 0.5 lbs N/1000 ft^2, Day 70
[10] = Weekly Rate 1.0 lbs N/1000 ft^2, Day 37
[11] = Weekly Rate 1.0 lbs N/1000 ft^2, Day 70
[12] = Weekly Rate 3.0 lbs N/1000 ft^2, Day 37
[13] = Weekly Rate 3.0 lbs N/1000 ft^2, Day 70
[14] = Weekly Rate 0.5 lbs N/1000 ft^2, Day 0
[15] = Weekly Rate 0.5 lbs N/1000 ft^2, Day 95
[16] = Weekly Rate 1.0 lbs N/1000 ft^2, Day 0
[17] = Weekly Rate 1.0 lbs N/1000 ft^2, Day 95
[18] = Weekly Rate 3.0 lbs N/1000 ft^2, Day 0
[19] = Weekly Rate 3.0 lbs N/1000 ft^2, Day 95

SMILES: Cl.NCCCC[C@H](N)C(=O)O [Lys (HCl) 15% N, L-lysine monohydrochloride]
- Density Rating - Kentucky Bluegrass [1, 5]: 5.3cde
- Density Rating - Kentucky Bluegrass [1, 6]: 6.3abc
- Density Rating - Kentucky Bluegrass [1, 7]: 7.0ab
- Injury Rating - Kentucky Bluegrass [2, 8]: 1.7de
- Injury Rating - Kentucky Bluegrass [2, 9]: 5.0c
- Injury Rating - Kentucky Bluegrass [2, 10]: 2.7cd
- Injury Rating - Kentucky Bluegrass [2, 11]: 6.0abc
- Injury Rating - Kentucky Bluegrass [2, 12]: 6.3a
- Injury Rating - Kentucky Bluegrass [2, 13]: 7.0ab
- Quality Rating - Kentucky Bluegrass [3, 14]: 5.0cde
- Quality Rating - Kentucky Bluegrass [3, 8]: 5.3b
- Quality Rating - Kentucky Bluegrass [3, 9]: 4.3cd
- Quality Rating - Kentucky Bluegrass [3, 15]: 5.7ab
- Quality Rating - Kentucky Bluegrass [3, 16]: 5.3bcd
- Quality Rating - Kentucky Bluegrass [3, 10]: 7.3a
- Quality Rating - Kentucky Bluegrass [3, 11]: 6.0ab
- Quality Rating - Kentucky Bluegrass [3, 17]: 6.0a
- Quality Rating - Kentucky Bluegrass [3, 18]: 6.3ab
- Quality Rating - Kentucky Bluegrass [3, 12]: 8.0a
- Quality Rating - Kentucky Bluegrass [3, 13]: 6.7a
- Quality Rating - Kentucky Bluegrass [3, 19]: 5.7ab
- Quality Rating - Fairway Bentgrass [4, 14]: 6.3a
- Quality Rating - Fairway Bentgrass [4, 8]: 6.0ab
- Quality Rating - Fairway Bentgrass [4, 9]: 6.0
- Quality Rating - Fairway Bentgrass [4, 15]: 7.0a
- Quality Rating - Fairway Bentgrass [4, 16]: 7.0a
- Quality Rating - Fairway Bentgrass [4, 10]: 7.0a
- Quality Rating - Fairway Bentgrass [4, 11]: 5.7
- Quality Rating - Fairway Bentgrass [4, 17]: 7.0a
- Quality Rating - Fairway Bentgrass [4, 18]: 7.0a
- Quality Rating - Fairway Bentgrass [4, 12]: 6.7ab
- Quality Rating - Fairway Bentgrass [4, 13]: 5.7
- Quality Rating - Fairway Bentgrass [4, 19]: 7.0a

SMILES: NC(N)=O [Urea, urea, reference compound]
- Density Rating - Kentucky Bluegrass [1, 5]: 5.0de
- Density Rating - Kentucky Bluegrass [1, 6]: 5.3cde
- Density Rating - Kentucky Bluegrass [1, 7]: 7.0ab
- Injury Rating - Kentucky Bluegrass [2, 8]: 1.0e
- Injury Rating - Kentucky Bluegrass [2, 9]: 5.0c
- Injury Rating - Kentucky Bluegrass [2, 10]: 1.3e
- Injury Rating - Kentucky Bluegrass [2, 11]: 5.7bc
- Injury Rating - Kentucky Bluegrass [2, 12]: 3.3bc
- Injury Rating - Kentucky Bluegrass [2, 13]: 7.0ab
- Quality Rating - Kentucky Bluegrass [3, 14]: 4.7de
- Quality Rating - Kentucky Bluegrass [3, 8]: 6.0b
- Quality Rating - Kentucky Bluegrass [3, 9]: 4.3cd
- Quality Rating - Kentucky Bluegrass [3, 15]: 4.3ab
- Quality Rating - Kentucky Bluegrass [3, 16]: 5.0cde
- Quality Rating - Kentucky Bluegrass [3, 10]: 7.7a
- Quality Rating - Kentucky Bluegrass [3, 11]: 5.3bc
- Quality Rating - Kentucky Bluegrass [3, 17]: 6.3a
- Quality Rating - Kentucky Bluegrass [3, 18]: 6.3ab
- Quality Rating - Kentucky Bluegrass [3, 12]: 8.0a
- Quality Rating - Kentucky Bluegrass [3, 13]: 6.7a
- Quality Rating - Kentucky Bluegrass [3, 19]: 4.3ab
- Quality Rating - Fairway Bentgrass [4, 14]: 6.7a
- Quality Rating - Fairway Bentgrass [4, 8]: 6.7ab
- Quality Rating - Fairway Bentgrass [4, 9]: 6.0
- Quality Rating - Fairway Bentgrass [4, 15]: 7.0a
- Quality Rating - Fairway Bentgrass [4, 16]: 7.0a
- Quality Rating - Fairway Bentgrass [4, 10]: 7.0a
- Quality Rating - Fairway Bentgrass [4, 11]: 6.7
- Quality Rating - Fairway Bentgrass [4, 17]: 7.0a
- Quality Rating - Fairway Bentgrass [4, 18]: 6.3a
- Quality Rating - Fairway Bentgrass [4, 12]: 7.0a
- Quality Rating - Fairway Bentgrass [4, 13]: 6.0
- Quality Rating - Fairway Bentgrass [4, 19]: 7.0a
